{"source": "patent US7214512B2", "about": "“Genomic mammary Amyloid a sequence” (The Board of Regents of the University of Nebraska, priority 1999, dated 2007)", "molecules": {"B1": {"name": "prolactin: prolactin from sheep pituitary gland, used to stimulate colostrum-SAA production (protein, UniProt P01240 31-229, looked up)", "Prolactin": "TPVCPNGPGNCQVSLRDLFDRAVMVSHYIHNLSSEMFNEFDKRYAQGKGFITMALNSCHTSSLPTPEDKEQAQQTHHEVLMSLILGLLRSWNDPLYHLVTEVRGMKGVPDAILSRAIEIEEENKRLLEGMEMIFGQVIPGAKETEPYPVWSGLPSLQTKDEDARHSAFYNLLHCLRRDSSKIDTYLKLLNCRIIYNNNC"}, "B2": {"name": "colostrum-SAA: unique isoform of serum amyloid A found in bovine colostrum and MAC-T cell culture fluid (protein)", "chain": "QRWGTFLKEAGQGAKDMWRAYQDMKEANYRGADKYFHARGNYDAARRGPGGAWAAKVISNARETIQGITDPLFKGMTRDQVREDSKADQFANEWGRSGKDPNHFRPAGLPDKY"}, "B3": {"name": "SAA from the serum: SAA semi-purified from bovine serum, three isoforms staining with anti-SAA monoclonal antibody (protein)", "chain": "QWMSFFGEAYEGAKDMWRAYSDMREANYKGADKYFHARGNYDAAQRGPGGAWAAKVISDARENIQRFTDPLFKGTTSGQGQEDSRADQAANEWGRSGKDPNHFRPAGLPDKY"}}, "key": {"MUC3 mRNA": {"test_system": "MUC3 mRNA", "test": "MUC3 mRNA expression in intestinal epithelial cell culture assay", "format": "cell-based, human", "settings": "for MUC3 mRNA/28s RNA ratio, Mean: peptide comparison, Control = 100.000; for MUC3 mRNA/28s RNA ratio, Mean / MUC3 mRNA stimulation versus control (in words): 30 minutes at 37° C. at 50 μg/ml; for MUC3 mRNA stimulation versus control (in words): p<0.008", "source_text": "Different mucin genes have been identified and to date, twelve human mucin genes have been identified. However, MUC3 mucin is the predominant intestinal mucin. It has previously been shown that the MUC3 mucins are effective in preventing the adherence of enteropathogenic Escherichia coli (EPEC) to intestinal epithelial cells. […] It is also well known that breast-feeding infants are far less susceptible to infectious diarrhea than formula fed infants. There are a number of theories why this is so, but it is hypothesized that milk-associated amyloid (colostrum SAA) may be an important inducer of MUC3 gene expression. Applicant has evaluated MUC3 mRNA expression using an in vitro human cell culture assay system. In this system, intestinal cells incubated with the N-terminal peptide sequence of colostrum SAA have shown increased MUC3 mRNA expression as compared to control cells grown without the addition of colostrum SAA to the cell culture medium. To further explore this finding, Applicant has evaluated the functional specificity of the N-terminal peptide sequence of colostrum SAA by evaluation of MUC3 expression in the same in vitro assay using colostrum SAA N-terminal peptide sequences that have been randomly scrambled and a colostrum SAA peptide sequence downstream of the N-terminal sequence. If the expression of MUC3 is increased then intestinal cells grown in the presence of colostrum SAA should have a greater capacity to inhibit adherence of bacterial pathogens. This will be studied using EPEC in an in vitro assay system pre-incubated with colostrum SAA in the cell culture medium. Enteropathogenic E. coli are non-invasive, non-toxin producing pathogens that have been recognized as a significant cause of diarrhea in third world countries and in day care settings in developed countries. Future studies will evaluate the benefits of colostrum SAA in in vivo studies as well as characterized animal equivalent to human EPEC. Colostrum associated SAA provides a means to naturally upregulate the innate protective mechanisms of the human intestine and would provide a novel form of therapy to a common problem that occurs all too often in the third world leads to death of infants and in the developed world countries and leads to significant morbidity and cost. Furthermore, prevention of intestinal infections for traveler's or those having to live in conditions with altered sanitary practices would also reduce morbidity. Thus, this therapy offers an effective, natural, non-drug/chemical therapy.\n(§1) These four peptides were used in a cell culture assay designed to evaluate them for their properties of inducing mucin (MUC) mRNA production, either MUC3 or MUC2 according to the methods described by Mack et al. (Biochem. Biophys. Res. Commun. 199: 1012–1018, 1994 and Am J Physiol. Vol. 4, part 1, pg. G841–950, 1999).\nN-Terminal Peptide Titration and MUC3 mRNA Expression. Intestinal epithelial cells, Mack et al. 1994, 1999, were exposed to the N-terminal 10 amino acid bovine colostrum-SAA peptide (SEQ ID NO:30) at various concentrations for 30 minutes incubation at […]. The cells were incubated an additional hour following replacement of the test medium with fresh medium without peptide and then the total cellular niRNA isolated and analyzed for MUC3 specific mRNA. […] The optimum concentration was 50 μg/ml medium (see FIG. 7).\nMUC3 Stimulation. MUC3 stimulating activity of the N-terminal 10 amino acid bovine colostrum-SAA peptide was compared to the activity of the “Limited Scramble”, the “Total Scramble” and “C-Terminal peptides”. Optimum time and temperature of incubation and concentration of peptides was for 30 minutes at 37° C. at 50 μg/ml respectively."}, "MUC2 mRNA": {"test_system": "MUC2 mRNA", "test": "MUC2 mRNA expression in intestinal epithelial cells cultured under conditions favoring MUC2", "format": "cell-based, human", "settings": "for MUC2 mRNA/28s RNA ratio, Mean: peptide comparison, conditions optimized for MUC3 stimulation, Control = 100.000", "source_text": "as §1\nMUC2 mRNA Stimulation. To address whether the N-Terminal 10 amino acid bovine colostrum-SAA peptide would stimulate mRNA synthesis for MUC2 production, intestinal epithelial cells were cultured under conditions favoring MUC2 expression rather than MUC3. All peptides were used at concentrations and conditions that were previously optimized for MUC3 stimulation. […] Additionally, conditions were changed to 2× the optimum MUC3 incubation time (1 hr). […] The evidence strongly indicates specificity of function in stimulating the production of a mucin produced mainly in the small intestine (MUC3) over one produced primarily in the large intestine (MUC2) (see FIG. 9)."}, "[1]": {"test_system": "Bovine MAC-T mammary gland epithelial cells", "test": "Colostrum-SAA production by MAC-T cells stimulated with prolactin (ELISA)", "format": "cell-based", "procedure": "Bovine MAC-T mammary gland epithelial cells were obtained from ATCC (CRL-10274) and cultured according to recommended conditions (Turner, J D and Huynh H. Immortalized bovine mammary epithelial cell line. U.S. Pat. No. 5,227,301 dated Jul. 13, 1993). MAC-T cells were cultured on Dulbecco's Modified Eagles Media (DMEM) supplemented with 10% Fetal Calf Serum (FCS), 5 μg/ml insulin, 1 μg/ml hydrocortisone and fungizone. Cells were incubated at 37° C. with 5% CO2. For colostrum-SAA production the cells were seeded onto type I Collagen coated plates. After 14 hours of incubation, the cells were washed twice with Dulbecco's phosphate buffered saline (DPBS) and incubated in media (DMEM, 5 μg/ml insulin, 1 μg/ml hydrocortisone and 2.5% FCS) supplemented with prolactin from sheep pituitary gland (5 μg/ml) for the stimulation of colostrum-SAA production. Approximately one half of the media was replaced daily with fresh prolactin supplemented media. Standard ELISA for the quantitation of SAA (FIG. 3) was used to assay aliquots of the growth media collected on the different days for the presence of colostrum-SAA.\nCells were kept in culture for 41 days in media supplemented with prolactin. Levels of colostrum-SAA production reached a maximum of almost 3000 ng/ml."}, "[2]": {"test": "Isoelectric focusing (IEF) and 2-D gel of SAA preparations", "format": "physicochemical", "settings": "IEF on IPG strips, anti-SAA monoclonal antibody stain", "source_text": "Isoelectric Focusing (IEF) of SAA from serum, colostrum and cell culture fluid. The PROTEIN IEF Cell (BioRad) was used for the isoelectric focusing of the various SAA preparations. Ready Strip IPG Strips (BioRad Laboratories) with a pH range of 3–10 were used for the IEF. The second dimension (2-D) of the protein analysis was done by subjecting the IPG strips to 12% SDS-PAGE gel and electroblotting onto a PVDF membrane. The strips and blots were done in duplicate so that one of the blots could be stained with a protein stain, Coomassie Brilliant Blue, (CBB) and the other stained with the anti-SAA monoclonal antibody for the identification of the SAA protein isoforms. The samples also contained internal IEF standards (BioRad Laboratories) so that isoelectric point (pI) of each SAA isoforms could be determined. By comparing the antibody stained spots to the spots of the standards stained with CBB the apparent pI of the SAA isoforms could be determined. […]\nThe proteins subjected to the IEF and 2-D analysis were either affinity purified as described for the cell culture fluid or, in the case of the serum only semi-purified by hydrophobic chromatography. SAA is a highly hydrophobic molecule and will bind readily to Octyl Sepharose beads and then under the appropriate conditions can be eluted off the matrix. […]"}}, "note": "Several values for one entry are separate records, joined by “and”; a condition that tells them apart may be missing. Identical values can stand only once.", "data": [{"molecule": "DAAQRGPQQA (peptide of residues in C-terminal region of bovine SAA used as experimental control) [control 10 amino acid peptide, first 7 residues from the C-terminal region of bovine SAA, reference compound]", "values": [{"measurement": "MUC3 mRNA/28s RNA ratio, Mean", "setting": "MUC3 mRNA", "value": 111.333}, {"measurement": "MUC2 mRNA/28s RNA ratio, Mean", "setting": "MUC2 mRNA", "value": 67.500}]}, {"molecule": "GKFAWEGMTL (randomized experimental control sequence) [Total Scramble, control peptide with the amino acids of the entire N-Terminal peptide in random order, reference compound]", "values": [{"measurement": "MUC3 mRNA/28s RNA ratio, Mean", "setting": "MUC3 mRNA", "value": 109.333}, {"measurement": "MUC2 mRNA/28s RNA ratio, Mean", "setting": "MUC2 mRNA", "value": 65.833}]}, {"molecule": "MWGLTKFEAG (limited scramble for experiment) [N-terminal peptide in which the four TFLK amino acids were scrambled in their order, reference compound]", "values": [{"measurement": "MUC3 mRNA stimulation versus control (in words)", "setting": "MUC3 mRNA", "value": "lack of stimulation"}, {"measurement": "MUC3 mRNA/28s RNA ratio, Mean", "setting": "MUC3 mRNA", "value": 95.000}, {"measurement": "MUC2 mRNA/28s RNA ratio, Mean", "setting": "MUC2 mRNA", "value": 87.167}]}, {"molecule": "MWGTFLKEAG (N-terminal region of bovine colostrum SAA) [10 amino acid N-terminal portion of mature bovine colostrum-SAA containing the conserved TFLK]", "values": [{"measurement": "time in which intestinal mucin genes are turned on", "setting": "MUC3 mRNA", "value": "≤ 30", "unit": "min"}, {"measurement": "MUC3 mRNA stimulation versus control (in words)", "setting": "MUC3 mRNA", "value": "stimulated MUC3 mRNA statistically significantly over the control values"}, {"measurement": "optimum concentration for MUC3 mRNA stimulation", "setting": "MUC3 mRNA; 30 minutes incubation", "value": 50, "unit": "μg/ml medium"}, {"measurement": "MUC3 mRNA/28s RNA ratio, Mean", "setting": "MUC3 mRNA", "value": 174.833}, {"measurement": "MUC2 mRNA increase over control (in words)", "setting": "MUC2 mRNA; 100 and 500 μg/ml, incubation time 1 hr", "value": "None of these changes resulted in MUC2 mRNA increase over control values"}, {"measurement": "MUC2 mRNA stimulation versus control (in words)", "setting": "MUC2 mRNA; concentrations and conditions optimized for MUC3 stimulation", "value": "the values were not significantly different"}, {"measurement": "MUC2 mRNA/28s RNA ratio, Mean", "setting": "MUC2 mRNA", "value": 101.167}]}, {"molecule": "B1", "values": [{"measurement": "maximum level of colostrum-SAA production", "setting": "[1]; prolactin 5 μg/ml in media, 41 days in culture", "value": "~3000", "unit": "ng/mL"}, {"measurement": "detection of colostrum-SAA in media (in words)", "setting": "[1]; prolactin stimulation, eight days", "value": "Measurable quantities of colostrum-SAA could be detected by day two"}]}, {"molecule": "B2", "values": [{"measurement": "apparent pI", "setting": "[2]; listed as SAA purified from the culture fluid of MAC-T cells stimulated with LPS", "value": "9.4–9.6"}]}, {"molecule": "B3", "values": [{"measurement": "apparent pI", "setting": "[2]", "value": "~7.0 and ~5.8 and ~5.5"}]}]}
